Experimental data reported in patent US4734421A, “Anti-inflammatory substituted 2-benzyl-mercapto-imidazole and pyrimidine derivatives compositions and method of use therefor” (Merck & Co., Inc., priority 1986, dated 1988).

Test system: Mouse Ear Edema
Test: Topical Mouse Ear Assay (Mouse Ear Edema)
Format: in vivo
Settings: Table 1, Dosage 300 μg, irritant (PMA or AA) not given
Procedure: (§1) The rat foot edema assay CFE and the topical mouse ear assay were used to evaluate the anti-inflammatory activity of the novel compounds of the present invention. These are established assay for screening non steroridal anti-inflammatory agents.
The right ears of mice (5 mice per group) were treated topically with either 5μ PMA ([…]) or 1000μ AA alone or with the test compound in 25μ of vehicle. The vehicle was water/pyridine/acetone (1:2:97). A control group of mice received the vehicle only. The mice were allowed food and water ad libitum during the treatment period; 2 hours for AA and 4 hours for PMA. The mice were sacrificed by cervical dislocation and a 6 mm diameter disc of tissue punched from both the treated and untreated ears. The tissue biopsies were immediately weighed and the weight increase of the treated ear relative to the weight of the untreated ear determined.
Results: The effect of representative compounds on Mouse Ear Edema

SMILES	Edema (% inhibition) [%]
COc1ccc(O)c(CSc2nccn2C)c1 [drawing 5]	45
COc1ccc(O)c(CSc2ncc(C)n2C)c1 [drawing 6]	65
COc1ccc(O)c(CSc2nc3ccccc3[nH]2)c1 [drawing 7]	76
COc1ccc(O)c(CSc2ncccn2)c1 [drawing 8]	32

Test system: Rat Foot Edema
Test: Rat Foot Edema Assay (CFE)
Format: in vivo
Settings: Table 2a, Dosage (μg) 30
Procedure: as §1
Representative compounds of formula (I) or (II) were tested according to the well-established procedures of rat foot edema assay published in 1962 by C. A. Winter, E. A. Risley and G. W. Nuss, Proc Soc Exp Biol Med. III, 544 (1962).
Results: The effect of representative compounds on Rat Foot Edema

SMILES	Edema (% inhibition) [%]
COc1ccc(O)c(CSc2nc(C)cn2C)c1	77
COc1ccc(O)c(CSc2nc(C)c[nH]2)c1	74
COc1ccc(O)c(CSc2nccn2C)c1 [drawing 10]	74
COc1ccc(O)c(CSc2ncc(C)n2C)c1 [drawing 11]	54
COc1ccc(O)c(CSc2nc3ccccc3[nH]2)c1 [drawing 14]	21
COc1ccc(O)c(CSc2ncccn2)c1 [drawing 15]	3

Same assay, conditions: Table 2b, Dosage (mpk) 30

SMILES	% Inhibition [%]
Cc1cnc(SCc2cc3c(cc2O)CCCO3)n1C	42
